The record followed here is patent US20250326723A1, “Development of an Enzyme-Inhibitor Reaction Using Cellular Retinoic Acid Binding Protein II for One-Pot Megamolecule Assembly” (NORTHWESTERN UNIVERSITY, priority 2021, published 2025).

In series [1] the target is T1, CrabTag protein domain (CRABP2) (Homo sapiens, UniProt P29373).
T1 construct: made in house; host or cells: E. coli T7 SHuffle Express
T1 sequence (P29373 with tags, fused parts or gaps): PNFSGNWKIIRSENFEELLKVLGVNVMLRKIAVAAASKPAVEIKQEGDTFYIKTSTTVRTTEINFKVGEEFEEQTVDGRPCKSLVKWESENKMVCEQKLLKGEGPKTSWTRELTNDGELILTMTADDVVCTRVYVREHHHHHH
The series is described as follows: Quantification of reaction kinetics for CRABP2 (CrabTag) covalent modification, fluorescent SDS-PAGE. The class given is biochemical. How it is done: The present disclosure provides a method for synthesizing linker 11, which includes a fluorophore to characterize the kinetics for reaction of the covalent inhibitor and CrabTag, as shown in FIG. 10A. The inventors have run parallel reactions that varies the concentration of the linker (2, 5, 10, 20, 40, 65, and 100 μM) at a constant concentration of CrabTag (1 μM) and stops the reactions using Laemmli reducing buffer at times ranging from 0 to 120 seconds, as shown in FIG. 10B. […] The inventors have separated the reaction products with SDS-PAGE and quantitated the mean fluorescence intensity of protein bands that corresponded to the adduct with ImageJ. […]
The inventors synthesized linker 11, which included a fluorophore to characterize the kinetics for reaction of the covalent inhibitor and CrabTag as shown in FIG. 10A The inventors ran parallel reactions that varied the concentration of the linker (2, 5, 10, 20, 40, 65, and 100 μM) at a constant concentration of CrabTag (1 μM) and stopped the reactions using Laemmli reducing buffer at times ranging from 0 to 120 seconds as shown in FIG. 10B. […] The inventors separated the reaction products with SDS-PAGE and quantitated the mean fluorescence intensity of protein bands that corresponded to the adduct with ImageJ. […]

Series [2] concerns the target T1, CrabTag protein domain (CRABP2). Put plainly: Stability of the covalent CrabTag-linker adduct over two weeks, fluorescent SDS-PAGE. The class given is physicochemical.
Series [3] concerns fusion protein containing SnapTag and cutinase domains (CS). The series is described as follows: Cross-reactivity of SnapTag and cutinase protein domains with the fluorescent CrabTag inhibitor, SDS-PAGE. The series is classed as biochemical. To be noted: CS 10 μM, linker 1 equiv., 25° C. in PBS; CrabTag protein added next day. From the text:
FIG. 18A illustrates orthogonality of enzyme-inhibitor pairs in the megamolecule assembly toolbox. A Coomassie stain with brightfield view of SDS-PAGE. Lane 1: CRABP2 (R) protein domain (MW, −16 kDa). Lane 2: Reaction of CRABP2 with fluorescent linker 11. Lane 3: Cutinase-SnapTag (CS) fusion protein (MW, −45 kDa). Lane 4: CS with the CrabTag fluorescent inhibitor. Lane 5: CS with the di-cutinase PEG11 linker to yield a di-CS megamolecule (MW, −90 kDa). Lane 6: CS with the di-SnapTag PEG11 linker to yield a di-CS megamolecule (MW, −90 kDa). Lanes 7-8: CS was first mixed with the CrabTag fluorescent inhibitor for two hours. Afterwards, the di-cutinase PEG11 or the di-SnapTag PEG11 linker was added, forming the di-CS megamolecule (MW, −90 kDa). The next day, the R protein was added to form the fluorescent band shown in the fluorescent SDS-PAGE. Lanes 9-10: R was first mixed with either the di-cutinase PEG11 or the di-SnapTag PEG11 linker for two hours, followed by the addition of the CS fusion protein to form the di-CS megamolecule (MW, −90 kDa). The following day, the fluorescent CrabTag linker was added to form the fluorescent band shown in the fluorescent SDS-PAGE. […]
The orthogonality of the CrabTag enzyme-inhibitor system was examined against our existing two chemistries, cutinase and SnapTag. […] All reactions were imaged by SDS-PAGE using both fluorescence and Coomassie stain.

Another series deals with T2, CrabTag (CRABP2) (Homo sapiens, UniProt P29373).
T2 construct: made in house; host or cells: E. coli T7 SHuffle Express
T2 sequence (P29373 2-138): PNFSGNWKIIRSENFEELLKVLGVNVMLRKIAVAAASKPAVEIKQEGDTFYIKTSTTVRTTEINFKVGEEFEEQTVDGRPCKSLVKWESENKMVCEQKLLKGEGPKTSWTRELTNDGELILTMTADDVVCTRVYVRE
Put plainly: Intact protein ESI-MS of CrabTag-inhibitor complexes. The series is classed as binding. As to conditions: CrabTag 1 μM, inhibitor 5 μM, 5 minutes. How it is done: FIG. 3 illustrates ESI-MS deconvoluted spectra with expected and observed molecular weights for CrabTag with a N-terminal Histag. Top: Purified CrabTag protein with the N-terminal histag and TEV protease recognition sequence (R, Black). Bottom: Adduct from reaction of R (0.1 nmol, 1 μM) with an inhibitor of the disclosure having a structure according to Formula 10 (5 eq., 5 μM) (Red). The reaction occurred in 100 μL of 1×PBS for 5 minutes before being stopped by addition of formic acid in preparation for ESI-MS.
FIG. 4 illustrates intact protein ESI-MS for CrabTag-inhibitor complexes. Reactions of C-terminal Histag R (1 μM, 1 equivalent) with either an inhibitor of the disclosure having a structure according to Formula 10 (5 μM, 5 equivalents) or an inhibitor of the disclosure having a structure according to Formula 11 (5 μM, 5 equivalents) occurred for 5 minutes before being stopped with formic acid.
Megamolecules were prepared for LC-MS analysis and evaluation using ESI-MS. Reaction time points were taken by quenching the sample with 0.1% formic acid. The preparation involved the desalting and dilution of the multi-protein assembly to 1 μM in nuclease free water. […] Spectra data were analyzed with Agilent MassHunter Qualitative Analysis software to reveal m/z data. […]

A further series addresses T3, CRABP2 (Homo sapiens, UniProt P29373).
T3 construct: His6 (N); made in house; host or cells: E. coli T7 SHuffle Express
T3 sequence (P29373 with tags, fused parts or gaps): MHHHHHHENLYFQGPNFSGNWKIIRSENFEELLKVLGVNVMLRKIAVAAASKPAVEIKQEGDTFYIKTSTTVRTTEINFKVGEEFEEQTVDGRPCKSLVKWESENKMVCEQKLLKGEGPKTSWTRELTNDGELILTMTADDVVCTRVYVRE
Put plainly: X-ray crystal structure of the CRABP2-10 covalent complex. The class given is binding. As to conditions: 1.8 Å structure. As for the experimental part: CRABP2 protein (1000 nmol, 100 μM) was reacted with inhibitor 10 (500 μM, 5 equivalents) in PBS for about 1-50 hours, about 6-20 hours, about 10-18 hours, about 12-16 hours, or about 16 hours. The protein-inhibitor adduct was then purified using SEC and the fractions containing the adduct were pooled, dialyzed, and concentrated to 12 mg/mL (1.275 mL total) using a Centrifugal Filter Unit. […]
Data Processing, Structure Determination and Model Refinement. […] Diffraction data were measured at the Life Sciences Collaborative Access beamlines at Sector 21 of the Advanced Photon Source at Argonne National Laboratory, indexed, integrated and scaled with HKL2000.^4 All subsequent work was conducted using the CCP4 suite of programs.^5 The space group and unit cell parameters were confirmed with Pointless.^6 The structure was determined by molecular replacement with PhaserMR, using a single monomer of Human Cellular Retinoic Acid Binding Protein II (CRABPII) (PDB: 6HKR) with ligands and water molecules removed as the initial phasing model. […]

For `CC1(C)CCN(C(=O)CCC(=O)NCCOCCOCCOCCOCCOCCOCCOCCOCCOCCOCCOCCNC(=O)CCCCCNC(=O)c2ccc3c(c2)C(=O)OC32c3ccc(O)cc3Oc3cc(O)ccc32)c2ccc(C#Cc3ccc(OS(=O)(=O)F)cc3)cc21` [linker 11, Bi-EG(11)-(CrabTag Ligand, Fluorescein)], in series [1] (CrabTag 1 μM, linker 2-100 μM, times 0 to 120 seconds, ratio of ki and KI), the “second order rate constant for the covalent modification reaction, keff” value is “(3.6±0.5)×10^3 M^−1s^−1”. Also, in series [2] (1 μM in PBS, 25° C. (room temperature), after two weeks), the “protein domains retaining covalent occupancy of the linker (normalized covalent occupancy)” value is “over 95%”. For the same molecule, the “reactivity of the CrabTag linker after incubation with CS fusion protein” value in series [3] was “maintained selective reactivity with the CrabTag enzyme”. Moreover, the “adduct stoichiometry by intact mass spectrometry” value at CrabTag (CRABP2) is “monomeric adducts with only one modification”.
Turning to `CC1(C)CCN(C(=O)CCC(=O)O)c2ccc(C#Cc3ccc(OS(=O)(=O)F)cc3)cc21` [inhibitor 10, 4-(6-((4-((fluorosulfonyl)oxy)phenyl)ethynyl)-4,4-dimethyl-3,4-dihydroquinolin-1(2H)-yl)-4-oxobutanoic acid], the “effective rate constant of the inhibition reaction” value in series [1] (CrabTag inhibition reaction) is “approximately 3,600 M^−1s^−1”. Moreover, in series [2] (room temperature, over two weeks), the “enzyme-inhibitor complex stable (bound)” value is recorded as more than 95%. The “adduct stoichiometry by intact mass spectrometry” value on CrabTag (CRABP2) is on record as “monomeric adducts with only one modification”. The “residue covalently modified in crystal structure” value at CRABP2 is listed as “selectively modifies Tyr135”.
